Results published in patent US9163021B2, “Pyrrolo[3,2-c]pyridine tropomyosin-related kinase inhibitors” (Pfizer Limited, priority 2012, dated 2015).

biological target: TRKA (Homo sapiens (Human), UniProt P04629); assay: Isolated TRK enzyme assay (HTRF KinEASE-TK), PV3144 TrkA enzyme assay; type: biochemical; conditions: arithmetic mean where more than one reading
Method in brief: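 His-tagged TrkA cytoplasmic domain preactivated with ATP 20 min, then with compound 20 min at room temperature before 1 µM final biotin-TK substrate; HTRF 665/620 nm read.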

TRKA, sequence (P04629 441-796): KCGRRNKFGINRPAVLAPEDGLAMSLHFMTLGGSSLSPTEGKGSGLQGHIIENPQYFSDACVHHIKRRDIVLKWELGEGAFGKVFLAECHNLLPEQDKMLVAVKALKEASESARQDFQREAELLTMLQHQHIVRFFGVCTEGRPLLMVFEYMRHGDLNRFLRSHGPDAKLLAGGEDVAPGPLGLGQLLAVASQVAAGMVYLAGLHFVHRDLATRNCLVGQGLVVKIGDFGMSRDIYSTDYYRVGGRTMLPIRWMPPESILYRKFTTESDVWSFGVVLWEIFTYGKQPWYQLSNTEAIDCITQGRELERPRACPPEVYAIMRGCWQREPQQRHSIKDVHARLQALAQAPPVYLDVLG

Going from `Cc1nc(C)n(CC(=O)Nc2cc(C(=O)c3cn(C(C)C)c4ccncc34)ccn2)n1` [Example 112, 2-(3,5-dimethyl-1H-1,2,4-triazol-1-yl)-N-(4-{[1-(propan-2-yl)-1H-pyrrolo[3,2-c]pyridin-3-yl]carbonyl}pyridin-2-yl)acetamide] to `Cc1nc(C)n(CC(=O)Nc2cncc(C(=O)c3cn(C(C)C)c4ccncc34)c2)n1` [Example 137, 2-(3,5-dimethyl-1H-1,2,4-triazol-1-yl)-N-(5-{[1-(propan-2-yl)-1H-pyrrolo[3,2-c]pyridin-3-yl]carbonyl}pyridin-3-yl)acetamide], the IC50 rises from 5110 nM to 9800 nM (1.9-fold). The first is the more potent here.

Going from `Cc1cc(C(C)C)nn1CC(=O)Nc1cc(C(=O)c2cn(C(C)C)c3ccncc23)ccn1` [Example 113, 2-[5-methyl-3-(propan-2-yl)-1H-pyrazol-1-yl]-N-(4-{[1-(propan-2-yl)-1H-pyrrolo[3,2-c]pyridin-3-yl]carbonyl}pyridin-2-yl)acetamide] to `Cc1cc(C(C)C)nn1CC(=O)Nc1cncc(C(=O)c2cn(C(C)C)c3ccncc23)c1` [Example 120, 2-(5-methyl-3-(propan-2-yl)-1H-pyrazol-1-yl]-N-(5-{[1-(propan-2-yl)-1H-pyrrolo[3,2-c]pyridin-3-yl]carbonyl}pyridin-3-yl)acetamide], the IC50 rises from 20.4 nM to 39.5 nM (1.9-fold).

Going from `Cc1cn(CC(=O)Nc2cc(C(=O)c3cn(C(C)C)c4ccncc34)ccn2)nn1` [Example 114, 2-(4-methyl-1H-1,2,3-triazol-1-yl)-N-(4-{[1-(propan-2-yl)-1H-pyrrolo[3,2-c]pyridin-3-yl]carbonyl}pyridin-2-yl)acetamide] to `Cc1cn(CC(=O)Nc2cncc(C(=O)c3cn(C(C)C)c4ccncc34)c2)nn1` [Example 132, 2-(4-methyl-1H-1,2,3-triazol-1-yl)-N-(5-{[1-(propan-2-yl)-1H-pyrrolo[3,2-c]pyridin-3-yl]carbonyl}pyridin-3-yl)acetamide], the IC50 rises from 289 nM to 505 nM (1.7-fold). The first is the more potent here.

Going from `CC(C)n1cc(C(=O)c2cncc(NC(=O)Cc3ccc(F)cc3)c2)c2cnccc21` [Example 115, 2-(4-fluorophenyl)-N-(5-{[1-(propan-2-yl)-1H-pyrrolo[3,2-c]pyridin-3-yl]carbonyl}pyridin-3-yl)acetamide] to `CC(C)n1cc(C(=O)c2cncc(NC(=O)Cc3ccc(Cl)cc3)c2)c2cnccc21` [Example 116, 2-(4-chlorophenyl)-N-(5-{[1-(propan-2-yl)-1H-pyrrolo[3,2-c]pyridin-3-yl]carbonyl}pyridin-3-yl)acetamide], the IC50 falls from 42 nM to 11.3 nM (3.7-fold).

Compared with `CC(C)n1cc(C(=O)c2cncc(NC(=O)Cc3cccc(CC(C)(C)O)c3)c2)c2cnccc21` [Example 117, 2-(3-(2-hydroxy-2-methylpropyl)phenyl]-N-(5-{[1-(propan-2-yl)-1H-pyrrolo[3,2-c]pyridin-3-yl]carbonyl}pyridin-3-yl)acetamide], `CC(C)n1cc(C(=O)c2cncc(NC(=O)Cc3cccc(Cl)c3)c2)c2cnccc21` [Example 125, 2-(3-chlorophenyl)-N-(5-{[1-(propan-2-yl)-1H-pyrrolo[3,2-c]pyridin-3-yl]carbonyl}pyridin-3-yl)acetamide] is 18-fold higher in IC50: 39.2 nM for the first, 707 nM for the second. The first is the more potent here.

First: Cc1nccn1CC(=O)Nc1cncc(C(=O)c2cn(C(C)C)c3ccncc23)c1 [Example 118, 2-(2-methyl-1H-imidazol-1-yl)-N-(5-{[1-(propan-2-yl)-1H-pyrrolo[3,2-c]pyridin-3-yl]carbonyl}pyridin-3-yl)acetamide]
Second: Cc1ccn(CC(=O)Nc2cncc(C(=O)c3cn(C(C)C)c4ccncc34)c2)n1 [Example 134, 2-(3-methyl-1H-pyrazol-1-yl)-N-(5-{[1-(propan-2-yl)-1H-pyrrolo[3,2-c]pyridin-3-yl]carbonyl}pyridin-3-yl)acetamide]
The IC50 of the first is 32-fold higher: 9150 nM for the first, 284 nM for the second. The second is the more potent here.

`CC(C)n1cc(C(=O)c2cncc(NC(=O)Cc3ncccn3)c2)c2cnccc21` [Example 119, N-(5-{[1-(propan-2-yl)-1H-pyrrolo[3,2-c]pyridin-3-yl]carbonyl}pyridin-3-yl)-2-(pyrimidin-2-yl)acetamide] and `CC(C)n1cc(C(=O)c2cncc(NC(=O)Cc3cnccn3)c2)c2cnccc21` [Example 133, N-(5-{[1-(propan-2-yl)-1H-pyrrolo[3,2-c]pyridin-3-yl]carbonyl}pyridin-3-yl)-2-(pyrazin-2-yl)acetamide] are within 1.5-fold of each other in IC50: 4900 nM for the first, 4340 nM for the second.

First: Cc1cc(C(F)(F)F)nn1CC(=O)Nc1cncc(C(=O)c2cn(C(C)C)c3ccncc23)c1 [Example 121, 2-(5-methyl-3-(trifluoromethyl)-1H-pyrazol-1-yl]-N(5-{[1-(propan-2-yl)-1H-pyrrolo[3,2-c]pyridin-3-yl]carbonyl}pyridin-3-yl)acetamide]
Second: Cc1cc(C)n(CC(=O)Nc2cncc(C(=O)c3cn(C(C)C)c4ccncc34)c2)n1 [Example 131, 2-(3,5-dimethyl-1H-pyrazol-1-yl)-N-(5-{[1-(propan-2-yl)-1H-pyrrolo[3,2-c]pyridin-3-yl]carbonyl}pyridin-3-yl)acetamide]
The IC50 of the first is 6.5-fold lower: 14.3 nM for the first, 92.8 nM for the second.

First: CC(C)n1cc(C(=O)c2cncc(NC(=O)Cn3cccn3)c2)c2cnccc21 [Example 122, N-(5-{[1-(propan-2-yl)-1H-pyrrolo[3,2-c]pyridin-3-yl]carbonyl}pyridin-3-yl)-2(1H-pyrazol-1-yl)acetamide]
Second: CC(C)n1cc(C(=O)c2cncc(NC(=O)Cn3cc(Cl)cn3)c2)c2cnccc21 [Example 127, 2-(4-chloro-1H-pyrazol-1-yl)-N-(5-{[1-(propan-2-yl)-1H-pyrrolo[3,2-c]pyridin-3-yl]carbonyl}pyridin-3-yl)acetamide]
The IC50 of the first is 29-fold higher: 1220 nM for the first, 41.8 nM for the second.

Going from `CC(C)c1cn(CC(=O)Nc2cncc(C(=O)c3cn(C(C)C)c4ccncc34)c2)nn1` [Example 123] to `CC(C)c1ccnn1CC(=O)Nc1cncc(C(=O)c2cn(C(C)C)c3ccncc23)c1` [Example 124, 2-(5-(propan-2-yl)-1H-pyrazol-1-yl]-N-(5-{[1-(propan-2-yl)-1H-pyrrolo[3,2-c]pyridin-3-yl]carbonyl}pyridin-3-yl)acetamide], the IC50 rises from 59.5 nM to 198 nM (3.3-fold). The first is the more potent here.

First: CC(C)n1cc(C(=O)c2cncc(NC(=O)Cc3cccc(Cl)c3)c2)c2cnccc21 [Example 126, 2-(3-chlorophenyl)-N-(5-{[1-(propan-2-yl)-1H-pyrrolo[3,2-c]pyridin-3-yl]carbonyl}pyridin-3-yl)acetamide]
Second: CC(C)n1cc(C(=O)c2cncc(NC(=O)Cc3ccccc3)c2)c2cnccc21 [Example 130, 2-phenyl-N-(5-{[1-(propan-2-yl)-1H-pyrrolo[3,2-c]pyridin-3-yl]carbonyl}pyridin-3-yl)acetamide]
The IC50 of the first is 5.6-fold lower: 28.6 nM for the first, 161 nM for the second.

`COc1ccc(CC(=O)Nc2cncc(C(=O)c3cn(C(C)C)c4ccncc34)c2)cc1` [Example 128, 2-(4-methoxyphenyl)-N-(5-{[1-(propan-2-yl)-1H-pyrrolo[3,2-c]pyridin-3-yl]carbonyl}pyridin-3-yl)acetamide] and `CC(C)n1cc(C(=O)c2cncc(NC(=O)Cc3ccc(C#N)cn3)c2)c2cnccc21` [Example 139, 2-(5-cyanopyridin-2-yl)-N-(5-{[1-(propan-2-yl)-1H-pyrrolo[3,2-c]pyridin-3-yl]carbonyl}pyridin-3-yl)acetamide] are within 1.5-fold of each other in IC50: 147 nM for the first, 100 nM for the second.

Going from `Cc1ccnn1CC(=O)Nc1cncc(C(=O)c2cn(C(C)C)c3ccncc23)c1` [Example 135, 2-(5-methyl-1H-pyrazol-1-yl)-N-(5-{[1-(propan-2-yl)-1H-pyrrolo[3,2-c]pyridin-3-yl]carbonyl}pyridin-3-yl)acetamide] to `Cc1cc(CC(=O)Nc2cncc(C(=O)c3cn(C(C)C)c4ccncc34)c2)[nH]n1` [Example 136, 2(3-methyl-1H-pyrazol-5-yl)-N-(5-{[1-(propan-2-yl)-1H-pyrrolo[3,2-c]pyridin-3-yl]carbonyl}pyridin-3-yl)acetamide], the IC50 falls from 2600 nM to 268 nM (9.7-fold). The second is the more potent here.

Going from `CC(C)n1cc(C(=O)c2ccnc(NC(=O)Cc3ccc(C#N)cn3)c2)c2cnccc21` [Example 138, 2(5-cyanopyridin-2-yl)-N-(4-{[1-(propan-2-yl)-1H-pyrrolo[3,2-c]pyridin-3-yl]carbonyl}pyridin-2-yl)acetamide] to `CC(C)n1cc(C(=O)c2cc(NC(=O)Cc3ccc(C#N)cn3)ccn2)c2cnccc21` [Example 140, 2-(5-cyanopyridin-2-yl)-N-(2-{[1-(propan-2-yl)-1H-pyrrolo[3,2-c]pyridin-3-yl]carbonyl}pyridin-4-yl)acetamide], the IC50 rises from 45.3 nM to 207 nM (4.6-fold).

First: O=C(Cc1ccc(C(F)(F)F)cc1)Nc1cc(C(=O)c2cn(CCO)c3ccncc23)ccn1 [Example 141, N-(4-{[1-(2-hydroxyethyl)-1H-pyrrolo[3,2-c]pyridin-3-yl]carbonyl}pyridin-2-yl)-2-[4-(trifluoromethyl)phenyl]acetamide]
Second: O=C(Cc1ccc(Cl)cc1)Nc1cc(C(=O)c2cn(CCO)c3ccncc23)ccn1 [Example 146, 2-(4-chlorophenyl)-N-(4-{[1-(2-hydroxyethyl)-1H-pyrrolo[3,2-c]pyridin-3-yl]carbonyl}pyridin-2-yl)acetamide]
The IC50 of the first is 2.9-fold lower: 20.2 nM for the first, 59.4 nM for the second.

First: O=C(Nc1cc(C(=O)c2cn(CCO)c3ccncc23)ccn1)c1cccc(OC(F)(F)F)c1 [Example 142, N-(4-{[1-(2-hydroxyethyl)-1H-pyrrolo[3,2-c]pyridin-3-yl]carbonyl}pyridin-2-yl)-3-(trifluoromethoxy)benzamide]
Second: O=C(Cc1ccccc1OC(F)(F)F)Nc1cc(C(=O)c2cn(CCO)c3ccncc23)ccn1 [Example 143, N-(4-{[1-(2-hydroxyethyl)-1H-pyrrolo[3,2-c]pyridin-3-yl]carbonyl}pyridin-2-yl)-2-[2-(trifluoromethoxy)phenyl]acetamide]
The IC50 of the first is 33-fold lower: 29.9 nM for the first, 986 nM for the second.

First: O=C(Cc1ccc(Cl)c(Cl)c1)Nc1cc(C(=O)c2cn(CCO)c3ccncc23)ccn1 [Example 144, 2-(3,4-dichlorophenyl)-N-(4-{[1-(2-hydroxyethyl)-1H-pyrrolo[3,2-c]pyridin-3-yl]carbonyl}pyridin-2-yl)]
Second: O=C(Cc1ccc(F)cc1F)Nc1cc(C(=O)c2cn(CCO)c3ccncc23)ccn1 [Example 145, 2-(2,4-difluorophenyl)-N-(4-{[1-(2-hydroxyethyl)-1H-pyrrolo[3,2-c]pyridin-3-yl]carbonyl}pyridin-2-yl)acetamide]
The IC50 of the first is 14-fold lower: 22.2 nM for the first, 305 nM for the second. The first is the more potent here.
